What all share (settings): Compound Concentration 10.0 uM, Hit No
Assay [1] concerns the target Methyl-CpG-binding domain protein 4 (Homo sapiens) (UniProt O95243).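 Also: MBD4 activity read as fluorescence at 594 nm from cleavage and release of a quenched duplex DNA oligonucleotide, with APE1 coupled to incise the strand and raise turnover.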
Description: Inhibition of MBD4 by quantifying inhibition of MBD4-mediated cleavage and dissociation of quenched duplex DNA oligonucleotides, measured as fluorescence at 594 nm. To generate a functional strand incision and increase turn-over this assay is coupled to APE1.
In assay [2] the target is T1, Adenine DNA glycosylase (Homo sapiens) (UniProt Q9UIF7).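 Also: human MUTYH activity read as 594 nm fluorescence from cleavage and release of a quenched DNA duplex, coupled with APE1 for strand incision, lower signal meaning inhibition.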
T1 sequence (whole entry): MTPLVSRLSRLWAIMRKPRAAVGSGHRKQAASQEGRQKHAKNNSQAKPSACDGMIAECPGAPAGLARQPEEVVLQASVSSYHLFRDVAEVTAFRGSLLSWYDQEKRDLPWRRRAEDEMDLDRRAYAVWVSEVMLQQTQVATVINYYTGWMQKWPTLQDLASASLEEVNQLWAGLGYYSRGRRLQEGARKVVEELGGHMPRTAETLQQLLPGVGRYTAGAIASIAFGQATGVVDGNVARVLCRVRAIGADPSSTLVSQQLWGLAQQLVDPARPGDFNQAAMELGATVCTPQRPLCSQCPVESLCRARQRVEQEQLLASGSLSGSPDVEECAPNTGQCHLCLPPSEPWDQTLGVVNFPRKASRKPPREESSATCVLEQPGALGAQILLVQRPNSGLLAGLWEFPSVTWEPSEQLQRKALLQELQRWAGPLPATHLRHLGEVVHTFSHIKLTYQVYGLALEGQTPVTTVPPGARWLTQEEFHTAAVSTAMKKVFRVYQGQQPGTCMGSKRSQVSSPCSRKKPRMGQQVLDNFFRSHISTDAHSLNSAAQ
Description: Inhibition of MUTYH by quantifying inhibition of MUTYH-mediated cleavage and dissociation of quenched duplex DNA oligonucleotides, measured as fluorescence at 594 nm. To generate a functional strand incision and increase turn-over this assay is coupled to APE1.

The target in assay [3] is Uracil-DNA glycosylase (Homo sapiens) (UniProt P13051).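 Also: UNG excision on a quenched double-stranded DNA oligo probe, with APE1 added for strand incision and turnover, read as fluorescence at 594 nm as strands separate.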
Description: Inhibition of UNG by quantifying inhibition of UNG-mediated cleavage and dissociation of quenched duplex DNA oligonucleotides, measured as fluorescence at 594 nm. To generate a functional strand incision and increase turn-over this assay is coupled to APE1.
The target of assay [4] is T2, Endonuclease III-like protein 1 (Homo sapiens) (UniProt P78549).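 Also: enzyme assay tracking NTHL1 cutting and release of a quenched double-stranded DNA oligo substrate, read as fluorescence at 594 nm.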
T2 sequence (whole entry): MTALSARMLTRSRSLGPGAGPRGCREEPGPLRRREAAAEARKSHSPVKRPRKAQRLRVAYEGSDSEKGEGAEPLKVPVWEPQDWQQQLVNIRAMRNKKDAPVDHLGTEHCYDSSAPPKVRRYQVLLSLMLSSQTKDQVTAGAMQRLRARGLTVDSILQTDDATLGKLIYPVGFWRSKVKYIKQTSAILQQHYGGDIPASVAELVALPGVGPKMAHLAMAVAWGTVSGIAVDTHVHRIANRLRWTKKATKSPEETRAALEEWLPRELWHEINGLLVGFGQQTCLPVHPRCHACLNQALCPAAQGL
Description: Inhibition of NTHL1 by quantifying inhibition of NTHL1-mediated cleavage and dissociation of quenched duplex DNA oligonucleotides, measured as fluorescence at 594 nm.

For assay [5], the target named is G/T mismatch-specific thymine DNA glycosylase (Homo sapiens) (UniProt Q13569).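 Also: human TDG cleavage of quenched duplex DNA oligonucleotides coupled to APE1, strand release read as fluorescence at 594 nm, inhibition of TDG activity.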
Description: Inhibition of TDG by quantifying inhibition of TDG-mediated cleavage and dissociation of quenched duplex DNA oligonucleotides, measured as fluorescence at 594 nm. To generate a functional strand incision and increase turn-over this assay is coupled to APE1.
In assay [6] the target is N-glycosylase/DNA lyase (Homo sapiens) (UniProt O15527).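 Also: OGG1 cleavage of a quenched duplex DNA oligonucleotide, coupled to APE1 for strand incision, read as fluorescence at 594 nm.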
Description: Inhibition of OGG1 by quantifying inhibition of OGG1-mediated cleavage and dissociation of quenched duplex DNA oligonucleotides, measured as fluorescence at 594 nm. To generate a functional strand incision and increase turn-over this assay is coupled to APE1.
Assay [7] has as its target DNA-3-methyladenine glycosylase (Homo sapiens) (UniProt P29372).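 Also: enzyme assay where MPG cuts a quenched duplex DNA oligonucleotide probe, paired with APE1 for strand incision and turnover, read as fluorescence at 594 nm.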
Description: Inhibition of MPG by quantifying inhibition of MPG-mediated cleavage and dissociation of quenched duplex DNA oligonucleotides, measured as fluorescence at 594 nm. To generate a functional strand incision and increase turn-over this assay is coupled to APE1.
The target in assay [8] is T3, Endonuclease 8-like 2 (Homo sapiens) (UniProt Q969S2).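 Also: fluorescence at 594 nm reports NEIL2 cutting and release of a quenched double-stranded DNA oligo substrate, reduced signal read as inhibition.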
T3 sequence (whole entry): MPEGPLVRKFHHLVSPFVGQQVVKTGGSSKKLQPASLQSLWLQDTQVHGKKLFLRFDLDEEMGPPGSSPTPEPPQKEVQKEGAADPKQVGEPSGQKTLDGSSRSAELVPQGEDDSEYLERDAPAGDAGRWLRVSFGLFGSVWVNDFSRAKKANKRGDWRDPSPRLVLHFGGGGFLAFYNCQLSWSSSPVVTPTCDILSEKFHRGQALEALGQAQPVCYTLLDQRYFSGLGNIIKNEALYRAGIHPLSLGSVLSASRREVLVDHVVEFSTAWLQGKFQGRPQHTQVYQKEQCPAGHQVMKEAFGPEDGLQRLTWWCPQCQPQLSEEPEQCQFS
Description: Inhibition of NEIL2 by quantifying inhibition of NEIL2-mediated cleavage and dissociation of quenched duplex DNA oligonucleotides, measured as fluorescence at 594 nm.

Assay [9] concerns the target Endonuclease 8-like 1 (Homo sapiens) (UniProt Q96FI4).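 Also: fluorescence at 594 nm from quenched duplex DNA oligonucleotides released by NEIL1 cleavage and strand separation, reported as reduction of this enzyme activity.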
Description: Inhibition of NEIL1 by quantifying inhibition of NEIL1-mediated cleavage and dissociation of quenched duplex DNA oligonucleotides, measured as fluorescence at 594 nm.

The structures appear in SMILES notation. *1 amine or outer side, *2 acyl side, *3 side chain or, on linkers, in order; H or OH if unused. Where a SMILES comes first, the peptide text is derived from it. Bridges are numbered along the chain shown (N, C = ends). X1 = O=C(CCC[*:2])[*:1]

Sequence of G/T mismatch-specific thymine DNA glycosylase (Homo sapiens) (Q13569 whole entry): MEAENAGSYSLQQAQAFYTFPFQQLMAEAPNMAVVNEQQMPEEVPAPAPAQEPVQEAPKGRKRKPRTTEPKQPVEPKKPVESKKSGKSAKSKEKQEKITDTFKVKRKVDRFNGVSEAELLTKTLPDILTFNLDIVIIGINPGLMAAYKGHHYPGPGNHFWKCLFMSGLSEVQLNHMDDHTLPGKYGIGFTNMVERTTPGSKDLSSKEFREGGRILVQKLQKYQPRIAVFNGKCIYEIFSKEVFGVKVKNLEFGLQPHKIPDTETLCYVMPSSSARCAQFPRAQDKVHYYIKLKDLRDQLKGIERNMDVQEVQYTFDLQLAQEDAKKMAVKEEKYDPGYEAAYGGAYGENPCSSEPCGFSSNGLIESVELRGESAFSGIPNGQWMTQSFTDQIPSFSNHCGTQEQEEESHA
Sequence of N-glycosylase/DNA lyase (Homo sapiens) (O15527 whole entry): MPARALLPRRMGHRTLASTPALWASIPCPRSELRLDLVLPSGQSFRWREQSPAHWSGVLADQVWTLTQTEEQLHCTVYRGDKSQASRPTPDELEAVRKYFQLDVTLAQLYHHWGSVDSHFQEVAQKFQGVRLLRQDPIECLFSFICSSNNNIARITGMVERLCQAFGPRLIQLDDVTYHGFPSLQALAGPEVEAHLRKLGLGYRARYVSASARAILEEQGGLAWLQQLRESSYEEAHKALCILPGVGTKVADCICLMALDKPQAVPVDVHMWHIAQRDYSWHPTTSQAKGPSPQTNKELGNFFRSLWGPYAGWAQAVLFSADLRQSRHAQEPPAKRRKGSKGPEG
Sequence of Uracil-DNA glycosylase (Homo sapiens) (P13051 whole entry): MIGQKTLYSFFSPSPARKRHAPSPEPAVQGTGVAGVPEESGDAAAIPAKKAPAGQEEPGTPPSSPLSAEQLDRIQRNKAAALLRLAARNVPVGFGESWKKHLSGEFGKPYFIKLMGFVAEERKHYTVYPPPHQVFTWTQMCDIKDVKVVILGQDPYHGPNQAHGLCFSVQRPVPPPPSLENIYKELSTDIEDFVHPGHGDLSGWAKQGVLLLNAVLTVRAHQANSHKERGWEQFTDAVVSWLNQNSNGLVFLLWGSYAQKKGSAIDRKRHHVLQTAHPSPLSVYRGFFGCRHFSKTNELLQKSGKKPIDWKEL
Sequence of Endonuclease 8-like 1 (Homo sapiens) (Q96FI4 whole entry): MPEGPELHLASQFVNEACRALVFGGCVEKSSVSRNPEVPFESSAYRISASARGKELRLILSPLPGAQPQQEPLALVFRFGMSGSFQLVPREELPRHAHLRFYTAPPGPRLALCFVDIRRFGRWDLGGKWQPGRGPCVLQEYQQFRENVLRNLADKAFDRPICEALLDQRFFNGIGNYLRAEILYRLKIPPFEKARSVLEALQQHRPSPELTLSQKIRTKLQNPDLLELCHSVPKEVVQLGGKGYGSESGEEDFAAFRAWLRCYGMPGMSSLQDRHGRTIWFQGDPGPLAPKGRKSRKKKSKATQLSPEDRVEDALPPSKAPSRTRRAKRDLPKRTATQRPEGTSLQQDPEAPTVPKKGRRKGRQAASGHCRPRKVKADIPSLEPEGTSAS
Sequence of Methyl-CpG-binding domain protein 4 (Homo sapiens) (O95243 whole entry, the tested form may be a part): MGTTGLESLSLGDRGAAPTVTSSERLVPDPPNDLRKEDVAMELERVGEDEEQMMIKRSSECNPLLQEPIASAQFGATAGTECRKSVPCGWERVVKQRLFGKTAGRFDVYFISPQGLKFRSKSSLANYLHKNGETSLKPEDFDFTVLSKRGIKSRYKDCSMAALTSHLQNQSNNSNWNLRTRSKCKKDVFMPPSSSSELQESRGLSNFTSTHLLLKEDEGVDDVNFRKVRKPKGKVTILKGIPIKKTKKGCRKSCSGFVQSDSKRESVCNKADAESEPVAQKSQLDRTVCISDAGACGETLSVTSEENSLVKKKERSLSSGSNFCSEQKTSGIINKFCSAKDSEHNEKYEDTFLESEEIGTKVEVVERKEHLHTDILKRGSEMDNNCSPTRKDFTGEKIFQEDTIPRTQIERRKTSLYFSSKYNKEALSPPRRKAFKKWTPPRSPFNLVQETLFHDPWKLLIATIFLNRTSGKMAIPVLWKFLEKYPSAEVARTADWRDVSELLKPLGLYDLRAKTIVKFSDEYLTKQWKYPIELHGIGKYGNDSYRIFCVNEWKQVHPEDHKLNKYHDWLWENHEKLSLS
Sequence of DNA-3-methyladenine glycosylase (Homo sapiens) (P29372 whole entry): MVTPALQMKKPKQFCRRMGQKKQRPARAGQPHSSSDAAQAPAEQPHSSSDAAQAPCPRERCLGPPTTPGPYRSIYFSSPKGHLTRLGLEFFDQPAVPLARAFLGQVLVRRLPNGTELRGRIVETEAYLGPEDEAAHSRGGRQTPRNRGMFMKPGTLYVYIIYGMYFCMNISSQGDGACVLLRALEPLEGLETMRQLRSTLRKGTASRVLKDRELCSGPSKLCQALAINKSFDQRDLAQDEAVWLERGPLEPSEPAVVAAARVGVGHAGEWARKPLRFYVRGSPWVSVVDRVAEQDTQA

As to `CCCCCCCC/C=C\CCCCCCCC(=O)NCc1ccc(O)c(OC)c1`, the inhibition (in general, the change of the read-out against control, counted positive when it falls) in assay [1] was 18.2%; in assay [2], 5.55%; in [3], -4.89%; in [4] it was -7.69%; in assay [5], 13.7%; in assay [6], -7.56%. Further, the inhibition in assay [7] is -5.12%.
In the case of `CO[C@H]1CC[C@@H](C(=O)c2ccc3nc4c(cc3c2)CCCO4)CC1`, the inhibition in assay [1] is -6.79%; in assay [8] it was 8.38%; in assay [2] it was -9.06%; in assay [4] it was -6.5%; in [9] it was 1.35%; in [5] it was 4.03%. For the same compound, the inhibition in assay [6] was -3.26%; in assay [7] it was -2.23%.
As to `N=C(N)NCCC[C@H](NC(=O)COCC(c1ccccc1)c1ccccc1)C(=O)O`, the inhibition in [1] is -5.83%; in assay [8], -7.47%; in [2], 3.99%; in assay [4], 9.99%; in assay [9] it was 7.21%; in assay [5], -4.14%. Besides, the inhibition in [6] was -5.82%; in assay [7], 6.97%.
As for `CC[C@H](C)[C@@H]1NC(=O)[C@H](Cc2ccc(OC)cc2)NC(=O)CCCSC[C@@H](C(=O)N2CCC[C@H]2C(=O)N[C@@H](CC(C)C)C(=O)NCC(N)=O)NC(=O)[C@H](CC(N)=O)NC(=O)[C@H](CCC(N)=O)NC1=O` (Y(Me)IQNCPLG-NH2; linker N-5 via X1), the inhibition in assay [1] was -5.48%; in assay [8], -7.22%; in assay [2], -1%; in assay [4] it was 33.4%; in [9], -0.0556%; in assay [5], -1.9%. Also, the results for the inhibition in assay [6] and in assay [7] were -9.58% and -9.15%, respectively.
For `CNC(=O)[C@H]1O[C@@H](n2cnc3c(NCc4cccc(I)c4)ncnc32)[C@H](O)[C@@H]1O`, the inhibition was 10.4% in assay [1]; -8.76% in assay [8]; 14.2% in assay [2]; -5.89% in assay [3]; -2.73% in [4]; -7.1% in [9]. Further, the inhibition in assay [5] turned out to be 6.72%; in assay [7], 2.83%.
For `C[C@H](NC(=O)[C@H](Cc1ccccc1)NC(=O)[C@H](CCC(N)=O)NC(=O)CNC(=O)[C@@H]1CCCN1C(=O)[C@H](Cc1ccccc1)NC(=O)[C@@H](N)Cc1ccc(O)cc1)C(=O)N[C@@H](Cc1ccccc1)C(=O)N[C@@H](CO)C(=O)O`, the inhibition in assay [1] was 12.6%; in assay [8], 2.96%; in assay [2], 2.52%; in assay [3], -4.67%; in assay [4], 21.2%; in assay [9], 13.2%. The inhibition is 9.05% in assay [5] and 6.08% in assay [7].
Turning to `CN(Cc1cccc(F)c1CNc1cc(F)c(S(=O)(=O)Nc2cscn2)c(F)c1)C(C)(C)C`, the inhibition is 28.6% in assay [1]; -2.39% in [8]; 40.5% in assay [2]; -9.64% in [3]; 18.7% in assay [4]; 2.08% in assay [9]. In addition, the inhibition came out at 4.92% in assay [5] and 20.1% in [7].
For `C[C@@H](NC(=O)Cc1ccc(C2CC2)cc1)c1ccc(OCC(F)(F)F)cn1`, the inhibition in assay [1] is 4.9%; in [8] it was -6.21%; in assay [2], -6.51%; in assay [3] it was -2.14%; in [4] it was 11.3%; in [9], 0.602%. Moreover, the inhibition in [5] was found to be 4.49%; in assay [7] it was 10.8%.
Consider `CCCCN(CCCC)C(=O)CN1C[C@@H](c2ccc3c(c2)OCO3)[C@H](C(=O)O)[C@H]1c1ccc(OC)cc1`, for which the inhibition in assay [1] was 29.1%; in [8], -2.98%; in [2], 19.5%; in assay [4] it was 4.86%; in assay [9], -5.1%; in assay [5] it was 32.4%. Further, the inhibition amounted to 2.58% in assay [6] and 19.8% in assay [7].
As for `Fc1cccc(/C=N/N=C/c2cccc(F)c2)c1`, the inhibition was 4.13% in [1]; -1.37% in assay [8]; 1.53% in [2]; -6.06% in assay [3]; 15.4% in assay [4]; -5.18% in assay [9]. For the same compound, the inhibition is 5.75% in assay [5] and -2.88% in assay [7].
In the case of `Nc1nc(CC(=O)Nc2ccc(CCNC[C@H](O)c3ccccc3)cc2)cs1`, the inhibition in assay [1] was 6.31%; in assay [8], -2.64%; in assay [2], 7.21%; in assay [3] it was -1.78%; in assay [4] it was 22%; in [9], 3.71%. The inhibition in assay [5] is 2.71%; in assay [7], 5.02%.
On to `CCCNC(=O)c1nnc2c(-c3c(F)cccc3OC)cccc2c1N`, for which the inhibition was 26.8% in assay [1]; -2.64% in [8]; 24.9% in assay [2]; -1.98% in assay [3]; 27.8% in [4]; 10.5% in [9]. Moreover, the inhibition was 24.5% in assay [5] and 12.4% in assay [7].
Consider `CC(C)C[C@@H](NC(=O)[C@H](Cc1ccccc1)NC(=O)CNC(=O)[C@@H](C)NC(=O)[C@@H](N)Cc1ccc(O)cc1)C(=O)O`, for which the inhibition in assay [1] was 20%; in assay [2], 18.5%; in assay [3] it was -7.3%; in [4], 10.5%; in [5] it was 20.9%; in assay [6] it was -5.5%. Also, the inhibition in assay [7] was -5.23%.
`CCCCC1=NC2(CCCC2)C(=O)N1Cc1ccc(-c2ccccc2-c2nnn[nH]2)cc1`: the inhibition in assay [1] is 9.56%; in assay [8] it was 5.76%; in assay [2], 12.9%; in assay [4], -1.01%; in assay [9], 0.241%; in [5], 11.8%. In addition, the results for the inhibition in assay [6] and in assay [7] were -0.701% and 12.4%, respectively.
Turning to `CC1(C)SSC(C)(C)[C@@H](NC(=O)[C@@H](N)Cc2ccc(O)cc2)C(=O)NCC(=O)N[C@@H](Cc2ccccc2)C(=O)N[C@H]1C(=O)O`, the inhibition is -7.23% in assay [1]; 9.5% in assay [8]; 1.3% in [2]; 17.3% in assay [4]; 8.1% in assay [9]; 10.6% in assay [5]. Also, the inhibition is -3.29% in assay [6] and 7.58% in assay [7].
Turning to `FC(F)(F)c1cccc(-c2noc(-c3cc(-c4ccccc4)c(C(F)(F)F)s3)n2)c1`, the inhibition in assay [1] was 6.66%; in [8] it was -4.73%; in assay [2], 1.81%; in [4] it was 4.86%; in assay [5], 9.3%; in assay [6], -2.17%. In assay [7], the inhibition is -0.823%.
Take `C[N+]1(C)[C@@H]2C[C@@H](OC(=O)C(O)(c3cccs3)c3cccs3)C[C@H]1[C@@H]1O[C@@H]12`: the inhibition in assay [1] was -8.5%; in assay [8], 2.01%; in [2], 9.11%; in assay [4], 7.05%; in assay [9], 8.84%; in [5], -0.0311%. Also, the inhibition is -4.25% in assay [6] and -7.84% in [7].

Source of the values: ChEMBL document CHEMBL5665443, “Enzyme Inhibitor Single Concentration assay results for EUbOPEN Chemogenomics Library” (2024).
